# How the values were obtained:
# [1] = tested on: Col‐0 (wild‐type) seedlings; assay: Triple response assay, wild‐type; assay type: in vivo, Arabidopsis thaliana; conditions: dark‐grown, vs w/o ACC
# Method: Around 10 mg of seeds was filled into a 2‐mL reaction tube and put into a desiccator with the lid opened. Additionally, a beaker with 100 mL 37% perchloric acid was put into the desiccator. 3 mL of 37% hydrochloric acid was pipetted into the beaker to start the reaction, and the lid of the desiccator was closed immediately. The seeds were incubated for 1 h. After the incubation time, the lid of the desiccator was opened slightly, while the tubes were incubated for 20 more minutes to wait for the gas to evaporate. 1 mL of sterile water was added to the reaction tubes, and the seeds were stratified by storage at 4 °C for 3 days before planting (otherwise they can be planted directly after this procedure). Before starting to plant the seeds, any material (e.g., pots and tubs) was sterilized with 70% ethanol. A mixture of soil, vermiculite, and sand (ratio 8:1:1) was prepared, and water was added in the right proportion to make the soil mix soggy but not mushy. The soil mix was sterilized by heating it in the microwave at 800 W for about 10 min. Pots were filled with the sterilized soil mix afterwards. Around 100 μL of 1% agarose in tap water was added to the reaction tubes containing the sterilized seedlings for better pipetting precision, and the seeds were planted into the soil mix. The growth of A. thaliana was performed at 22 °C, 60% humidity, and 100–120 μEinstein light intensity. The plants were watered only from the bottom every 2–3 days. After 5 weeks, the plants were big enough to grow in their own pots instead of several plants being grown crowded in one pot.
# The triple response media for the agar plates was prepared by mixing 0.43% (w/v) of Murashige and Skoog (MS) salts and 1% (w/v) sucrose. The pH is adjusted to 6.0 before adding 0.7% (w/v) plant agar to the media and autoclaving it at 121 °C for 30 min. […] The seedlings were documented, and the length of the hypocotyl was analyzed using a binocular microscope and the software Motion 3.0, respectively. […]
# [2] = tested on: triple impα loss‐of‐function mutant seedlings; assay: Triple response assay, triple impα mutants; assay type: in vivo, Arabidopsis thaliana; conditions: 0.1 μM ACC, at least 20 seedlings per condition
# Method: To gain further insights into the role of the IMPα superfamily for ethylene signaling, we studied multiple higher order IMPα loss‐of‐function mutants (Fig. 2). […] To check for potential differences in ethylene sensitivity, we supplemented the experiments from Fig. 2B with 0.1 and 1 μM ACC (Fig. 2C). […] These findings indicate that the mutation of three IMPα isoforms leads to diminished sensitivity in ethylene perception, supporting the pivotal role of the IMPα superfamily in ethylene signaling. However, no differences in ethylene sensing were observed among the various triple mutants, further reinforcing the hypothesis of IMPα redundancy in EIN2 transport. The deletion of an excessive number of IMPα isoforms is likely to have detrimental effects on regular plant growth and development, which has already been observed in the triple mutants (impα‐1;impα‐2;impα‐3). Due to the pivotal role of the IMPα‐IMPβ machinery in the nuclear transport of a large number of cargo proteins, we adopted an alternative strategy to investigate the role of IMPα proteins in plant ethylene signal transduction by testing their physical interaction with the ethylene key regulator EIN2.
# (§1) Around 10 mg of seeds was filled into a 2‐mL reaction tube and put into a desiccator with the lid opened. Additionally, a beaker with 100 mL 37% perchloric acid was put into the desiccator. […]
# [3] = tested on: ein2‐1 loss‐of‐function mutant seedlings; assay: Triple response assay, ethylene‐insensitive mutant; assay type: in vivo, Arabidopsis thaliana; conditions: ein2‐1, dark‐grown, ACC in agar vs w/o ACC
# Text: In the presence of ethylene, dark‐grown seedlings display the characteristic phenotypic responses known as triple response. We hypothesized that nucleocytoplasmic transport and nuclear import of the EIN2 cytosolic part (CEND), which bridges ethylene signal transduction from the ER membrane to the nucleus, are mediated by the IMPα‐IMPβ transport machinery. This hypothesis is supported by the previously identified NLS motif in the EIN2 C terminus. To investigate whether any of the IMPα isoforms are implicated in ethylene signaling, A. thaliana Col‐0 (wild‐type; positive control), single loss‐of‐function mutants of the IMPα isoforms (impα1‐impα9) obtained from the Nottingham Arabidopsis Stock Centre (NASC), and ethylene‐insensitive mutant ein2‐1 (negative control) were grown in the dark in the presence of the ethylene precursor 1‐aminocyclopropane‐1‐carboxylate (ACC) and subsequently analyzed for their triple response. […] The findings on the single impα mutants indicate that nucleocytoplasmic transport and nuclear import of EIN2 CEND cannot be attributed to a single IMPα isoform, possibly because of functional redundancy among the IMPα isoforms.
# as §1
# IMPα7_ΔIBB = molecular target: T1, IMPα7_ΔIBB (Arabidopsis thaliana, UniProt Q9M9X7); assay: biochemical; assay type: binding
# T1 construct: hexa-His (TEV site between protein and tag) (C); made in house; host or cells: E. coli BL21gold
# T1 sequence (Q9M9X7 57-528, stated change not applied): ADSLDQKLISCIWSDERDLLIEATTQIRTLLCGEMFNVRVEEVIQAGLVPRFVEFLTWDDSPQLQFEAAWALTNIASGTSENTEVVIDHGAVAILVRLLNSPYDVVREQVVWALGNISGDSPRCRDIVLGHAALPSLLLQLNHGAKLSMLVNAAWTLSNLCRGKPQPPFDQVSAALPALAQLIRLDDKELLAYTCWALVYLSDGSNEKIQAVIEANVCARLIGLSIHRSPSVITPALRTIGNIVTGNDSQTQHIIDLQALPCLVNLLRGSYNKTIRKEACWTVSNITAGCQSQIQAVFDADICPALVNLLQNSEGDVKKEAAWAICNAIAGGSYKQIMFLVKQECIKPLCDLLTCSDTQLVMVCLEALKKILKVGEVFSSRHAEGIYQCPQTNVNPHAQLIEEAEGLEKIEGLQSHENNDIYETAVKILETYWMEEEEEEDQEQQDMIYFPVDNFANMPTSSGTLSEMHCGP
# Text: Genes encoding several isoforms of the IMPα superfamily were either isolated from Arabidopsis thaliana (IMPα1, ‐2, ‐3, ‐4, ‐8) or synthetically produced by GenScript (IMPα5, ‐6, ‐7, ‐9) and cloned into the pETEV21a vector (modified version of the pET21a vector with an additional TEV cleavage site between the GOI and the His‐tag), which contains a C‐terminal hexa‐His‐tag. Only IMPα5 was additionally cloned into the pETEV16b vector (modified version of the pET16b vector with an additional TEV cleavage site between the GOI and the His‐tag), which contains an N‐terminal deca‐His‐tag (see Table S2 for primer list). The AtEIN2C^1215–1281 gene was cloned into the pETEV16b vector and additionally contained a GB1‐domain at the N terminus to enhance solubility. Most of the proteins were expressed in the E. coli BL21pRARE strain, while IMPα7, IMPα8, and ΔIBB_IMPα1 (lack of the IBB domain) were expressed using the E. coli BL21gold strain. The bacterial cultures were adjusted to an initial OD600 of 0.1 and grown in 2YT media at 37 °C until an OD600 between 0.6 and 0.8 was reached. Subsequently, the protein expression was induced with 0.5 mM IPTG. After two hours, the cells were harvested via centrifugation at 10,000 g for 10 min. IMPα5, IMPα6, IMPα7, IMPα8, ΔIBB_IMPα1, and GB1_AtEIN2C^1215–1281 were expressed at 16 °C overnight with the addition of 2% (v/v) ethanol. […]
# EIN2C^479–1294 = assay: In planta FLIM‐FRET, EIN2C^479–1294‐CER donor, IMPα‐YFP acceptors; assay type: cell-based, Arabidopsis thaliana; conditions: mean, EIN2C^479–1294‐CER donor / IMPα‐YFP acceptor, N. benthamiana epidermal leaf cells
# Text: To further investigate the interaction between members of the IMPα superfamily and EIN2 in planta, we used in vivo fluorescence lifetime microscopy and Förster's resonance energy transfer (FLIM‐FRET). Accordingly, the C‐terminal part of EIN2 (EIN2C^479–1294) was fused to the fluorescent protein Cerulean (CER), serving as a donor, and the IMPα isoforms (IMPα1‐7) were fused to YELLOW FL[…] (YFP), serving as acceptors.
# A modified version of a previously described procedure was used for the transient transformation of N. benthamiana. An overnight culture of agrobacteria was inoculated in DYT and incubated at 28°C one day before infiltration. […] For co‐infiltration, bacteria solutions were mixed in equal quantities, and Agrobacterium strain GV3101:p19 expressing the p19 silencing inhibitor was added to each mix. […]
# Fluorescence lifetime imaging was performed using a protocol described previously. Fluorescence lifetime was measured at a Zeiss LSM 780 confocal microscope (40× water immersion objective, Zeiss C‐PlanApo, NA 1.2). […] Photons were detected in both donor and acceptor channels simultaneously with Tau‐SPADs (PicoQuant, Berlin, Germany). […] Internal response functions for each laser were determined by measuring the fluorescence decay of quenched Atto425 in saturated KI, using the same hardware settings as for the FRET pair of interest. […]
compound,measurement,setting,value
"NC1(C(=O)O)CC1 [ACC, 1‐aminocyclopropane‐1‐carboxylic acid]",reduction in hypocotyl length,"[1]; Col‐0, 0.1 μM ACC",21%
same,reduction in hypocotyl length,"[1]; Col‐0, 1 μM ACC",55.5%
same,reduction in hypocotyl length,"[1]; Col‐0, 10 μM ACC",56.5%
same,reduction in hypocotyl length (maximum among triple mutants),[2],≤ 7.5%
same,decrease in hypocotyl length,[3],10%
CC(C)C[C@H](NC(=O)[C@H](CCCNC(=N)N)NC(=O)[C@H](CCCNC(=N)N)NC(=O)[C@H](CCCCN)NC(=O)[C@H](Cc1ccc(O)cc1)NC(=O)[C@H](CCCNC(=N)N)NC(=O)[C@H](CCCCN)NC(=O)[C@H](CC(C)C)NC(=O)c1ccc2c(c1)C(=O)OC21c2ccc(N(C)C)cc2Oc2cc(N(C)C)ccc21)C(=O)O [TAMRA‐NOP‐1],Kd,IMPα7_ΔIBB,3 ± 0.3 µM
"IMPα4: A. thaliana IMPα4 fused to YFP, FRET acceptor",FRET efficiency,EIN2C^479–1294,4.6%

# Source: article PMC12871931, “The importin‐alpha superfamily engages in ethylene signaling by shuttling [sequence] INSENSITIVE 2 from the endoplasmic reticulum to the nucleus” (The Febs Journal, 2025)
